≈ marks a conversion by molar mass, not a printed value.
Columns and labels:
[1] = test system: isolated human erythrocytes; assay: In vitro hemolysis test using isolated human erythrocytes; assay type: cell-based
Experimental: Venous blood was taken from healthy volunteers and placed in plastic tubes containing sodium–citrate anti-coagulant. The cell fraction including erythrocytes was separated from the plasma components by centrifugation (2500× g, 10 min, 20 °C), washed three times with phosphate buffered saline (PBS) solution, and re-suspended in the same solution. The erythrocyte count was adjusted to 10^9 per mL under the control of a Laborscale cell analyzer (Medicor, Hungary). The test was performed in standard Eppendorf-type plastic tubes, where the incubation mixture consisted of 1.3 mL of reagent solution containing increasing concentrations of CDs dissolved in PBS, 0.05 mL of erythrocyte suspension containing 5 × 10^7 red blood cells, and 0.05 mL of 3% Na2CO3. After 10 min incubation at 37 °C, samples were mixed and centrifuged at 5000x g. The absorbance of the released hemoglobin in the supernatant was determined at 540 nm spectrophotometrically. As a reference, total (100%) hemolysis was obtained by replacing PBS with distilled water. CD-induced hemolysis was related to this reference value and expressed as percent hemolysis. All of the experiments included at least 10 different concentrations of the test materials in triplicate runs to allow the plotting of dose-effect curves from multi-point determinations, and to calculate EC50 values. In order to investigate the protective effect of plasma components, aliquots of PBS were replaced by 50 µL, 100 µL, and 200 µL of blood plasma in the incubation mixture. Plasma protein concentration was determined by the biuret method.

[2] = test system: whole blood (erythrocytes); assay: In vitro hemolysis test in whole blood samples; assay type: cell-based, human; details: RBC count 1 × 10^9
Experimental: For these experiments, healthy volunteers with identical main blood groups [A, Rhesus blood factor D (Rh) positive] but differing in their plasma lipid contents were selected. Plasma and cellular blood components were separated from the freshly taken sodium-citrated blood by centrifugation (2500× g, 10 min, 4 °C). The sedimented composite cellular fraction (red and white blood cells, and platelets) was washed with PBS, then re-suspended either in their own original plasma or in the foreign plasma with the identical blood group, resulting in erythrocyte/plasma combinations of normal cholesterol/lipid levels or higher cholesterol/lipid levels. The erythrocyte count was adjusted to 4 × 10^9 per mL in the blood. In this case, hemolysis test mixtures contained 0.04 mL of test solution with increasing concentrations of methyl-β-CD, 0.25 mL of blood, and 0.01 mL of 3% Na2CO3. Incubation and subsequent centrifugation conditions were identical to the above. Aliquots of the supernatant were diluted using PBS (containing 3% Na2CO3), and their hemoglobin content was determined. Again, dose-effect curves were constructed from multi-point determinations of triplicate runs. The levels of cholesterol, high-density lipoprotein (HDL), and triglyceride in plasma were determined by the use of standard laboratory procedures.

[3] = test system: primary fibroblast cells from an NPC patient (NPC1 mutant); assay: Intracellular cholesterol distribution by Filipin III staining; assay type: cell-based, human; details: 1 mM, 72 h, NPC1 mutant primary fibroblasts
Experimental: We determined the effects of the CD derivatives on intracellular cholesterol accumulation in primary fibroblast cells derived from an NPC patient using Filipin III, a fluorescent compound that specifically binds to unesterified cholesterol. After treatment with the CD derivatives (1 mM) for 72 h, the cells were examined for the fluorescent intensity of Filipin III using a fluorescence microscope. […] Studies are underway to define the molecular mechanisms by which HPβCD and HPγCD alleviate the cholesterol-trafficking defect. Cells were incubated in medium containing CD derivatives at 1 mM for 72 h. Cells were washed three times with PBS and fixed with 3.7% paraformaldehyde for 30 min at room temperature. After washing with PBS, cells were stained with PBS containing Filipin III (12.5 μg/mL) for 30–45 min at room temperature in the dark. After washing with PBS and applying a mounting medium, cells were analyzed using a Nikon TE2000 widefield microscope (Nikon, Melville, NY, USA).

HEK293T cells = assay: MTS cell viability assay (CellTiter 96 AQueous One) in HEK293T cells; assay type: cell-based, human; details: 10 mM, 24 h
Experimental: (§1) The CD/lipid inclusion complexes were then tested for their ability to reduce the metabolic activity (or cell viability) in HEK293T cells and HeLa cells (Figure 4) using the CellTiter 96 AQueous One Solution Cell Proliferation Assay Kit (Promega). Cells were treated with 10 mM of the free RAMEB, cholesterol-loaded RAMEB, linoleic acid-loaded RAMEB, or β-sitosterol-loaded RAMEB. At 24 h after treatment, a cell viability assay was conducted, and the absorbance at 490 nm was measured to determine the levels of the reaction products that were generated in metabolically active cells. Triton X-100 (TX) was included as a positive control for cytotoxicity. […]
(§2) The effects of CD treatment on cell viability and cytotoxicity were determined using the CellTiter 96 AQueous One Solution Cell Proliferation Assay Kit (Promega) and LDH Cytotoxicity Assay Kit (Thermo Fisher Scientific), respectively. […] The absorbance of the plates was recorded at 490 nm with an xMark microplate absorbance spectrophotometer (Bio-Rad, Hercules, CA, USA). […] Extracellular LDH in the media can be quantified by a coupled enzymatic reaction in which LDH catalyzes the conversion of lactate to pyruvate via nicotinamide adenine dinucleotide (NAD^+) reduction to NADH. Diaphorase then uses NADH to reduce a tetrazolium salt (INT) to a red formazan product that can be measured at 490 nm. […]

HeLa cells = assay: MTS cell viability assay (CellTiter 96 AQueous One) in HeLa cells; assay type: cell-based, human; details: 10 mM, 24 h
Experimental: as §1, §2

[4] = isolated human erythrocytes in PBS, no plasma
[5] = isolated human erythrocytes in PBS, plasma 50 μL
[6] = isolated human erythrocytes in PBS, plasma 100 μL
[7] = isolated human erythrocytes in PBS, plasma 200 μL

## COC[C@H]1O[C@@H]2O[C@H]3[C@H](O)[C@@H](OC)[C@@H](O[C@H]4[C@H](O)[C@@H](OC)[C@@H](O[C@H]5[C@H](O)[C@@H](OC)[C@@H](O[C@H]6[C@H](O)[C@@H](OC)[C@@H](O[C@H]7[C@H](O)[C@@H](OC)[C@@H](O[C@H]8[C@H](O)[C@@H](OC)[C@@H](O[C@H]1[C@H](O)[C@H]2OC)O[C@@H]8COC)O[C@@H]7COC)O[C@@H]6COC)O[C@@H]5COC)O[C@@H]4COC)O[C@@H]3COC [DIMEB-50, Heptakis (2,6-di-O-methyl)-β-cyclodextrin]
[1]; 5 mg/mL BSA (Figure 2)
  EC50DIMEB (hemolytic potency): 1.38 mg/mL (≈ 1040 µM)
[1]; 10 mg/mL bovine serum albumin (BSA) (Figure 2)
  EC50DIMEB (hemolytic potency): 1.53 mg/mL (≈ 1150 µM)
[1]; 100-µL plasma resulting in 5 mg/mL protein concentration in the mixture (Figure 2)
  EC50DIMEB (hemolytic potency): 9.38 mg/mL
[1]; 200-µL plasma resulting in 10 mg/mL protein concentration in the mixture (Figure 2)
  EC50DIMEB (hemolytic potency): 11.96 mg/mL
[1]; RBCs-washed, 200 μL plasma added, plasma CHO 0.76 mM, HDL 0.25 mM, TG 0.13 mM, RBC count 5 × 10^7
  Hemolytic EC50: 12.6 ± 0.2 mg/mL
[1]; RBCs-washed, no plasma added, RBC count 5 × 10^7
  Hemolytic EC50: 1.32 ± 0.1 mg/mL
[1]; [4]
  Hemolytic EC50: 1.2 ± 0.2 mg/mL
[1]; [5]
  Hemolytic EC50: 8.5 ± 0.2 mg/mL
[1]; [6]
  Hemolytic EC50: 9.4 ± 0.4 mg/mL
[1]; [7]
  Hemolytic EC50: 11.9 ± 0.3 mg/mL
[2]; plasma CHO 2.22 mM, HDL 1.13 mM, TG 0.48 mM
  Hemolytic EC50: 18.0 ± 0.2 mg/mL
[2]; plasma CHO 4.38 mM, HDL 0.58 mM, TG 1.08 mM
  Hemolytic EC50: 22.4 ± 0.4 mg/mL

## COC[C@H]1O[C@@H]2O[C@H]3[C@H](O)[C@@H](OC)[C@@H](O[C@H]4[C@H](O)[C@@H](OC)[C@@H](O[C@H]5[C@H](O)[C@@H](OC)[C@@H](O[C@H]6[C@H](O)[C@@H](OC)[C@@H](O[C@H]7[C@H](O)[C@@H](OC)[C@@H](O[C@H]8[C@H](O)[C@@H](OC)[C@@H](O[C@H]1[C@H](O)[C@H]2OC)O[C@@H]8COC)O[C@@H]7COC)O[C@@H]6COC)O[C@@H]5COC)O[C@@H]4COC)O[C@@H]3COC [DIMEB-95, Heptakis (2,6-di-O-methyl)-β-cyclodextrin]
[1]; [4]
  Hemolytic EC50: 1.2 ± 0.3 mg/mL
[1]; [5]
  Hemolytic EC50: 4.7 ± 0.4 mg/mL
[1]; [6]
  Hemolytic EC50: 6.5 ± 0.6 mg/mL
[1]; [7]
  Hemolytic EC50: 8.8 ± 0.5 mg/mL

## CC(O)COC[C@H]1O[C@@H]2O[C@H]3[C@H](O)[C@@H](O)[C@@H](O[C@H]4[C@H](O)[C@@H](O)[C@@H](O[C@H]5[C@H](O)[C@@H](O)[C@@H](O[C@H]6[C@H](O)[C@@H](O)[C@@H](O[C@H]7[C@H](O)[C@@H](O)[C@@H](O[C@H]8[C@H](O)[C@@H](O)[C@@H](O[C@H]1[C@H](O)[C@H]2O)O[C@@H]8COCC(C)O)O[C@@H]7COCC(C)O)O[C@@H]6COCC(C)O)O[C@@H]5COCC(C)O)O[C@@H]4COCC(C)O)O[C@@H]3COCC(C)O (stereo partly drawn) [HPβCD, Hydroxypropyl-β-cyclodextrin]
[3]
  Effect on intracellular cholesterol accumulation (Filipin III fluorescence): reduction in cholesterol accumulation

## COC[C@H]1O[C@@H]2O[C@H]3[C@H](OC)[C@@H](OC)[C@@H](O[C@H]4[C@H](OC)[C@@H](OC)[C@@H](O[C@H]5[C@H](OC)[C@@H](OC)[C@@H](O[C@H]6[C@H](OC)[C@@H](OC)[C@@H](O[C@H]7[C@H](OC)[C@@H](OC)[C@@H](O[C@H]8[C@H](OC)[C@@H](OC)[C@@H](O[C@H]1[C@H](OC)[C@H]2OC)O[C@@H]8COC)O[C@@H]7COC)O[C@@H]6COC)O[C@@H]5COC)O[C@@H]4COC)O[C@@H]3COC [TRIMEB, Heptakis (2,3,6-tri-O-methyl)-β-cyclodextrin]
[1]; [4]
  Hemolytic EC50: 7.3 ± 0.2 mg/mL
[1]; [5]
  Hemolytic EC50: 11.3 ± 0.3 mg/mL
[1]; [6]
  Hemolytic EC50: 14.7 ± 0.4 mg/mL
[1]; [7]
  Hemolytic EC50: 19.0 ± 0.2 mg/mL

## Hydroxypropyl-γ-cyclodextrin [HPγCD]
[3]
  Effect on intracellular cholesterol accumulation (Filipin III fluorescence): reduction in cholesterol accumulation

## Randomly methylated β-cyclodextrin [RAMEB]
[1]; [4]
  Hemolytic EC50: 2.3 ± 0.3 mg/mL
[1]; [5]
  Hemolytic EC50: 5.2 ± 0.3 mg/mL
[1]; [6]
  Hemolytic EC50: 7.0 ± 0.4 mg/mL
[1]; [7]
  Hemolytic EC50: 9.7 ± 0.5 mg/mL
HEK293T cells
  Effect on cell viability (metabolic activity): significant reduction in metabolic activity
HeLa cells
  Effect on cell viability (metabolic activity): significant reduction in metabolic activity

Reference: paper PMC6100472, “Cyclodextrins: Assessing the Impact of Cavity Size, Occupancy, and Substitutions on Cytotoxicity and Cholesterol Homeostasis” (Molecules : A Journal of Synthetic Chemistry and Natural …, 2018)
